Test results: patent US20250144067A1, “PERSONALIZED STARVATION THERAPY FOR CANCER” (Faeth Therapeutics, Inc., priority 2021, published 2025)
Counter-ions that a name gives are not always drawn. Like-named read-outs stand apart in the source and are kept apart here.

Assays:
[1] = test system: NCI-H292 lung cancer cells; experiment: FDA drug screening, complete media vs cholesterol-free media with simvastatin (TABLE 2); assay type: cell-based, human
[2] = test system: NCI-H292 lung cancer cells; experiment: FDA drug screening, complete media vs cholesterol-free media without statin (TABLE 1); assay type: cell-based, human
[3] = NCI-H292 cells, drug in cholesterol-free media with simvastatin 0.04 μM
[4] = NCI-H292 cells, drug in complete media
[5] = complete media vs cholesterol-free media + simvastatin (0.04 μM), >0 enhanced anti-cancer activity, about 0 neutral, <0 antagonist
[6] = Complete minus Cholesterol-free, >0 enhanced anti-cancer activity, about 0 neutral, <0 antagonist
[7] = NCI-H292 cells, cholesterol-free media without statin
[8] = NCI-H292 cells, cholesterol-free media with simvastatin 0.04 μM, cell growth value in FDA drug screen
[9] = NCI-H292 cells, complete media, cell growth value in FDA drug screen
[10] = complete media minus cholesterol-free media + simvastatin, >0 enhanced anti-cancer activity, about 0 neutral, <0 antagonist
[11] = Complete minus Cholesterol-free, greater than 0 enhanced anti-cancer activity, about 0 neutral, below 0 antagonists
[12] = NCI-H292 cells in cholesterol-free media without statin
[13] = NCI-H292 cells in complete media
[14] = NCI-H292 cells, cholesterol-free media with simvastatin 0.04 μM, FDA drug library screen (TABLE 2)
[15] = NCI-H292 cells, complete media, FDA drug library screen (TABLE 2)
[16] = complete media minus cholesterol-free media + simvastatin (0.04 μM), >0 enhanced anti-cancer activity, about 0 neutral, <0 antagonist
[17] = NCI-H292 cells, cholesterol-free media without statin, FDA drug library screen
[18] = NCI-H292 cells, complete media, FDA drug library screen
[19] = complete vs cholesterol-free media, >0 enhanced anti-cancer activity, about 0 neutral, <0 antagonist
[20] = NCI-H292 cells, FDA drug library screen, cholesterol-free media with simvastatin 0.04 μM
[21] = NCI-H292 cells, FDA drug library screen, complete media
[22] = Complete minus Cholesterol-free, greater than 0 enhanced anti-cancer activity, about 0 neutral, below 0 antagonist
[23] = NCI-H292 cells, FDA drug library screen, cholesterol-free media without statin
[24] = NCI-H292 cells, FDA library drug in cholesterol-free media with simvastatin 0.04 μM
[25] = NCI-H292 cells, FDA library drug in complete media

## Cn1cnc([N+](=O)[O-])c1Sc1ncnc2nc[nH]c12 [Azathioprine]
[1]; [3]
  Cholesterol-free media + simvastatin (0.04 μM): 1.672
[1]; [4]
  Complete Media: 1.494
[1]; [5]
  Difference: −0.18
[2]; [6]
  Difference: −0.20
[2]; [7]
  Cholesterol-free: 0.5865
[2]; NCI-H292 cells, complete media
  Complete: 0.3893

## CS(=O)(=O)c1cc(F)cc2c3c(n(Cc4ccc(Cl)cc4)c12)[C@@H](CC(=O)O)CC3 [Laropiprant]
[1]
  Cholesterol-free media + simvastatin (0.04 μM): 0.8957
  Complete Media: 1.455
  Difference: 0.56
[2]
  Cholesterol-free: 1.338
  Complete: 1.092
  Difference: −0.25

## CC(=O)O[C@H]1Cc2ccccc2N(C(N)=O)c2ccccc21 [Eslicarbazepine acetate]
[1]; [8]
  Cholesterol-free media + simvastatin (0.04 μM): 1.032
[1]; [9]
  Complete Media: 1.104
[1]; [10]
  Difference: 0.07
[2]; [6]
  Difference: −0.21
[2]; [7]
  Cholesterol-free: 0.9987
[2]; NCI-H292 cells, complete media
  Complete: 0.7874

## CC(C)(Sc1cc(C(C)(C)C)c(O)c(C(C)(C)C)c1)Sc1cc(C(C)(C)C)c(O)c(C(C)(C)C)c1 [Probucol]
[1]; [3]
  Cholesterol-free media + simvastatin (0.04 μM): 1.293
[1]; [4]
  Complete Media: 1.087
[1]; [5]
  Difference: −0.21
[2]; [11]
  Difference: −0.87
[2]; [12]
  Cholesterol-free: 1.75
[2]; [13]
  Complete: 0.8825

## CC(=O)OCC(=O)[C@@]12N=C(C)O[C@@H]1C[C@H]1[C@@H]3CCC4=CC(=O)C=C[C@]4(C)[C@H]3[C@@H](O)C[C@@]12C [Deflazacort]
[1]; [14]
  Cholesterol-free media + simvastatin (0.04 μM): 0.6257
[1]; [15]
  Complete Media: 0.5899
[1]; [16]
  Difference: −0.04
[2]; [17]
  Cholesterol-free: 0.629
[2]; [18]
  Complete: 0.7651
[2]; [19]
  Difference: 0.14

## CN[C@@H]1[C@H](O)[C@H](NC)[C@H]2O[C@@]3(O)C(=O)C[C@@H](C)O[C@H]3O[C@@H]2[C@H]1O.Cl.Cl.O.O.O.O.O
[1]; [20]
  Cholesterol-free media + simvastatin (0.04 μM): 0.773
[1]; [21]
  Complete Media: 0.9222
[1]; [10]
  Difference: 0.15
[2]; [11]
  Difference: −0.93
[2]; [12]
  Cholesterol-free: 1.889
[2]; [13]
  Complete: 0.9594

## CC(C)c1nc(N(C)S(C)(=O)=O)nc(-c2ccc(F)cc2)c1/C=C/[C@@H](O)C[C@@H](O)CC(=O)O [Rosuvastatin (Calcium)]
[1]; [8]
  Cholesterol-free media + simvastatin (0.04 μM): 0.9188
[1]; [9]
  Complete Media: 1.001
[1]; [10]
  Difference: 0.08
[2]; [6]
  Difference: −0.24
[2]; [7]
  Cholesterol-free: 1.156
[2]; NCI-H292 cells, complete media
  Complete: 0.9201

## O=C(Nc1cccc2c(=O)cc(-c3nnn[nH]3)oc12)c1ccc(OCCCCc2ccccc2)cc1 [Pranlukast]
[1]; [20]
  Cholesterol-free media + simvastatin (0.04 μM): 0.7995
[1]; [21]
  Complete Media: 1.23
[1]; [10]
  Difference: 0.43
[2]; [22]
  Difference: −0.10
[2]; [23]
  Cholesterol-free: 0.9973
[2]; [21]
  Complete: 0.8953

## Cc1cnc(Nc2ccc(OCCN3CCCC3)cc2)nc1Nc1cccc(S(=O)(=O)NC(C)(C)C)c1 [Fedratinib]
[1]; [24]
  Cholesterol-free media + simvastatin (0.04 μM): 0.6759
[1]; [25]
  Complete Media: 0.284
[1]; [5]
  Difference: −0.39
[2]; [6]
  Difference: −0.27
[2]; [7]
  Cholesterol-free: 0.5626
[2]; NCI-H292 cells, complete media
  Complete: 0.2926

## CN(Cc1cnc2nc(N)nc(N)c2n1)c1ccc(C(=O)N[C@@H](CCC(=O)O)C(=O)O)cc1 [Methotrexate]
[1]; [14]
  Cholesterol-free media + simvastatin (0.04 μM): 0.1275
[1]; [15]
  Complete Media: 0.1078
[1]; [16]
  Difference: −0.02
[2]; [22]
  Difference: −0.13
[2]; [23]
  Cholesterol-free: 0.225
[2]; [21]
  Complete: 0.09944

## NCCc1c[nH]cn1.O=P(O)(O)O [Histamine (phosphate)]
[1]; [14]
  Cholesterol-free media + simvastatin (0.04 μM): 1.025
[1]; [15]
  Complete Media: 1.021
[1]; [16]
  Difference: 0.00
[2]; [6]
  Difference: −0.23
[2]; [7]
  Cholesterol-free: 1.032
[2]; NCI-H292 cells, complete media
  Complete: 0.8034

## C#C[C@]1(O)CC[C@H]2[C@@H]3CCc4cc(OC)ccc4[C@H]3CC[C@@]21C [Mestranol]
[1]; [24]
  Cholesterol-free media + simvastatin (0.04 μM): 1.197
[1]; [25]
  Complete Media: 0.9303
[1]; [5]
  Difference: −0.27
[2]; [6]
  Difference: −0.06
[2]; [17]
  Cholesterol-free: 0.9912
[2]; [18]
  Complete: 0.9277

## Levamlodipine besylate
[1]
  Cholesterol-free media + simvastatin (0.04 μM): 1.066
  Complete Media: 0.9372
  Difference: −0.13
[2]
  Cholesterol-free: 1.261
  Difference: −0.22

## Clc1ccc(Cn2c(CN3CCCC3)nc3ccccc32)cc1 [Clemizole (hydrochloride)]
[1]; [8]
  Cholesterol-free media + simvastatin (0.04 μM): 0.9553
[1]; [9]
  Complete Media: 1.07
[1]; [10]
  Difference: 0.11
[2]; [22]
  Difference: −0.11
[2]; [23]
  Cholesterol-free: 1.125
[2]; [21]
  Complete: 1.013

## NC(N)=Nc1nc(CSCCC(N)=NS(N)(=O)=O)cs1 [Famotidine]
[1]; [24]
  Cholesterol-free media + simvastatin (0.04 μM): 1.666
[1]; [25]
  Complete Media: 1.298
[1]; [5]
  Difference: −0.37
[2]; [22]
  Difference: −0.07
[2]; [23]
  Cholesterol-free: 1.016
[2]; [21]
  Complete: 0.9424

## CN1CCN(C2=Nc3cc(Cl)ccc3Nc3ccccc32)CC1 [Clozapine]
[1]; [20]
  Cholesterol-free media + simvastatin (0.04 μM): 0.8452
[1]; [21]
  Complete Media: 1.094
[1]; [10]
  Difference: 0.25
[2]; [6]
  Difference: −0.23
[2]; [7]
  Cholesterol-free: 1.346
[2]; NCI-H292 cells, complete media
  Complete: 1.114

## Loxapine (succinate)
[1]; [8]
  Cholesterol-free media + simvastatin (0.04 μM): 1.274
[1]; [9]
  Complete Media: 1.361
[1]; [10]
  Difference: 0.09
[2]; [11]
  Difference: −0.72
[2]; [12]
  Cholesterol-free: 1.602
[2]; [13]
  Complete: 0.8776

## CC1=C(C(=O)O)N2C(=O)[C@@H](NC(=O)[C@H](N)C3=CCC=CC3)[C@H]2SC1 [Cephradine]
[1]; [24]
  Cholesterol-free media + simvastatin (0.04 μM): 1.213
[1]; [25]
  Complete Media: 0.8523
[1]; [5]
  Difference: −0.36
[2]; [17]
  Cholesterol-free: 0.9298
[2]; [18]
  Complete: 1.756
[2]; [19]
  Difference: 0.83

## Spiramycin
[1]; [3]
  Cholesterol-free media + simvastatin (0.04 μM): 1.277
[1]; [5]
  Difference: −0.16
[2]; [11]
  Difference: −1.20
[2]; [12]
  Cholesterol-free: 2.038
[2]; [13]
  Complete: 0.8421

## OC(CCN1CCCCC1)(c1ccccc1)C1CC2C=CC1C2 (stereo not shown) [Biperiden (Hydrochloride)]
[1]; [20]
  Cholesterol-free media + simvastatin (0.04 μM): 0.8257
[1]; [21]
  Complete Media: 1.742
[1]; [10]
  Difference: 0.92
[2]; [17]
  Cholesterol-free: 1.12
[2]; [18]
  Complete: 1.311
[2]; [19]
  Difference: 0.19

## CC1=NS(=O)(=O)c2cc(Cl)ccc2N1 [Diazoxide]
[1]; [8]
  Cholesterol-free media + simvastatin (0.04 μM): 0.9722
[1]; [9]
  Complete Media: 1.066
[1]; [10]
  Difference: 0.09
[2]; [7]
  Cholesterol-free: 1.261
[2]; NCI-H292 cells, complete media
  Complete: 0.9038
[2]; complete vs cholesterol-free media, greater than 0 enhanced anti-cancer activity, about 0 neutral, below 0 antagonists
  Difference: −0.36

## CCN(CC)CCOC(=O)C(c1ccccc1)C1CCCCC1 (stereo not shown) [Drofenine (hydrochloride)]
[1]; [8]
  Cholesterol-free media + simvastatin (0.04 μM): 1.111
[1]; [9]
  Complete Media: 1.144
[1]; [10]
  Difference: 0.03
[2]; [11]
  Difference: −0.55
[2]; [12]
  Cholesterol-free: 1.437
[2]; [13]
  Complete: 0.8908

## CC(=O)Oc1cc(C(C)C)c(OCCN(C)C)cc1C [Moxisylyte (hydrochloride)]
[1]; [3]
  Cholesterol-free media + simvastatin (0.04 μM): 1.237
[1]; [4]
  Complete Media: 1.071
[1]; [5]
  Difference: −0.17
[2]; [6]
  Difference: 0.07
[2]; [17]
  Cholesterol-free: 1.028
[2]; [18]
  Complete: 1.096
